Consider 17 molecules from the RepoRT retention time repository.

The nature of the data set: RP, Waters ACQUITY UPLC BEH C8, 100 × 2.1 mm, 1.7 µm, 55 °C, 0.6 mL/min, estimated dead time 0.37 min; A: 50% water + 25% acetonitrile + 25% isopropanol + 0.05% acetic acid + 20 µM phosphoric acid + 5 mM ammonium acetate; B: 50% acetonitrile + 50% isopropanol + 0.05% acetic acid + 5 mM ammonium acetate; gradient (min/%B) 0/1 0.1/1 2/30 11.5/90 12/99.9 12.5/99.9 12.55/65 12.65/30 12.75/1 12.95/1 13.25/1. The conditions noted are these: stereoisomer not certain.
Turning to `CCCCCCCCCCCC=CC(O)C(COP(=O)([O-])OCC[N+](C)(C)C)NC(=O)CCCCCCCCCCCCCCCCCCCCCC` (configuration not stated) [SM(d16:1/23:0)], the LC retention time was 7.57 min. Regarding `CCCCCCCCCCCC=CC(O)C(COP(=O)([O-])OCC[N+](C)(C)C)NC(=O)CCCCCCCCCCCCCCCCCCCCCCC` (configuration not stated) [SM(d16:1/24:0)], the LC retention time was 7.9 min. With `CCCCCCCCCCCCCCCC(=O)NC(COP(=O)([O-])OCC[N+](C)(C)C)C(O)CCCCCCCCCCCCCCC` (configuration not stated) [SM(d18:0/16:0)], the LC retention time is 5.94 min.

Take `CCCCCCCCCCCCCC=CC(O)C(COP(=O)([O-])OCC[N+](C)(C)C)NC(=O)CCCCCCCCCCCCCCC` (configuration not stated) [SM(d18:1/16:0)]: the LC retention time is 5.68 min. On to `CCCCCCCCCCCCCC=CC(O)C(COP(=O)([O-])OCC[N+](C)(C)C)NC(=O)CCCCCCCCCCCCCCCCC` (configuration not stated) [SM(d18:1/18:0)], for which the LC retention time is 6.41 min.

As to `CCCCCCCCCCCCCC=CC(O)C(COP(=O)([O-])OCC[N+](C)(C)C)NC(=O)CCCCCCCCCCCCCCCCCCC` (configuration not stated) [SM(d18:1/20:0)], the LC retention time was 7.12 min. Turning to `CCCCCCCCCCCCCC=CC(O)C(COP(=O)([O-])OCC[N+](C)(C)C)NC(=O)CCCCCCCCCCCCCCCCCCCCC` (configuration not stated) [SM(d18:1/22:0)], the LC retention time is 7.79 min. For `CCCCCCCCCCCCCC=CC(O)C(COP(=O)([O-])OCC[N+](C)(C)C)NC(=O)CCCCCCCCCCCCCCCCCCCCCC` (configuration not stated) [SM(d18:1/23:0)], the LC retention time was 8.1 min. Turning to `CCCCCCCCCCCCCC=CC(O)C(COP(=O)([O-])OCC[N+](C)(C)C)NC(=O)CCCCCCCCCCCCCCCCCCCCCCC` (configuration not stated) [SM(d18:1/24:0)], the LC retention time is 8.4 min. With `CCCCCCCCCCCCCCC=CC(O)C(COP(=O)([O-])OCC[N+](C)(C)C)NC(=O)CCCCCCCCCCCCCCC` (configuration not stated) [SM(d19:1/16:0)] the figure was 5.95 min; with `CCCCCCCCCCCCCCC=CC(O)C(COP(=O)([O-])OCC[N+](C)(C)C)NC(=O)CCCCCCCCCCCCCCCCC` (configuration not stated) [SM(d19:1/18:0)], 6.66 min.

As to `CCCCCCCCCCCCCC=CC(O)C(N)COP(=O)(O)O` (configuration not stated) [Sphingosine-1-phosphate], the LC retention time is 1.52 min.

Take `CCCCCCCCCCCCCCCCCC(=O)OC(CC(=O)[O-])C[N+](C)(C)C` (configuration not stated) [Stearoylcarnitine CAR(18:0)]: the LC retention time was 2.3 min. In the case of `CCCCCCCCCCCCCCCCCCCCCCCC(=O)OC(CC(=O)[O-])C[N+](C)(C)C` (configuration not stated) [Tetracosanoylcarnitine CAR(24:0)], the LC retention time is 4.34 min.

For `CCCCCCCCCCCCCC(=O)OC(CC(=O)[O-])C[N+](C)(C)C` (configuration not stated) [Tetradecanoylcarnitine CAR(14:0)], the LC retention time is 1.26 min. As to `CC(C=CC=C(C)C=CC1=C(C)CC(O)CC1(C)C)=CC=CC=C(C)C=CC=C(C)C=CC1=C(C)CC(O)CC1(C)C` (configuration not stated) [Zeaxanthin], the LC retention time was 3.6 min. On to `CC(C)=CCCC(C)=CCCC(C)=CC=CC(C)=CC=CC=C(C)C=CC=C(C)CCC=C(C)CCC=C(C)C` [Zeta-carotene], for which the LC retention time is 8.28 min.
